Results on two molecules are retold here after US20150274751A1, “TREATMENT OF S[…] AN INHIBITOR OF CBP/CATENIN” (PRISM Pharma Co., Ltd., priority 2012, published 2015).

Series [1] concerns bleomycin-induced dermal fibrosis. Put plainly: murine model of bleomycin-induced dermal fibrosis (histopathology scores). Type of series: in vivo, female C3H/HeJ inbred mice (Mus musculus). The text has this: The objective of this study was to assess the effects of the test article Compound A, an alpha helix mimetic β-catenin inhibitor compound, in a murine model of bleomycin-induced dermal fibrosis. Compound A is 4-(((6S,9S,9aS)-1-(benzylcarbamoyl)-2,9-dimethyl-4,7-dioxo-8-(quinolin-8-ylmethyl)octahydro-1H-pyrazino[2,1-c][1,2,4]triazin-6-yl)methyl)phenyl dihydrogen phosphate. Negative and positive control articles were phosphate buffered saline (PBS) and dexamethasone (DEX, a known treatment for scleroderma), respectively.
The high-dose (0.5 mg/mL) dosing solution of test article was prepared by mixing 4 mL of test article (stock solution at […]) with 36 mL of PBS. The low-dose (0.05 mg/mL) dosing solution was prepared by mixing 4 mL of the high-dose test article dosing solution (0.5 mg/mL) with 36 mL of PBS. The DEX dosing solution (1 mg/mL) was prepared by mixing 1 mL of the DEX stock solution (3 mg/mL) with 2 mL of PBS. The test and positive control articles were prepared once weekly, aliquoted and stored at 4° C. protected from light.
Forty-five female C3H/HeJ inbred mice (Mus musculus) at ages of approximately 6 weeks were obtained from Jackson Laboratory (Bar Harbor, Me.) for use in the study. Mice were selected for the study since these animals are an accepted species frequently used in pre-clinical evaluation of drugs intended for human use.
(§1) Dermal fibrosis was induced locally by six weeks of once-daily subcutaneous injections of bleomycin (0.1 U in 0.1 mL) into a defined area on the back of each mouse. Test and control articles were administered by twice-daily intraperitoneal injection starting from Day 14 (i.e., two weeks after the initiation of bleomycin injection). For mice of Groups 1-4, test/control article were administered (BID, IP) for four weeks, starting from Day 14 (i.e., two weeks after the initial bleomycin injection) administration was performed twice daily. Group 1 received negative control article (PBS) at 200 μL/mouse. Groups 2 and 3 received low- and high-dose test article dosing solutions (0.05 and 0.5 mg/mL Compound A) at doses of 0.5 and 5 mg/kg, respectively. Group 4 received DEX dosing solution (1 mg/mL) at doses of 1 mg/kg. […]
Mice were euthanized on Day 42, i.e., following six weeks of bleomycin injection and four weeks of test/control article treatment. A full gross necropsy was performed on each mouse, and any macroscopic abnormality was recorded. […]
Formalin-fixed skin and lung tissues from each mouse were processed for histopathology. […] Slides were evaluated for dermal fibrosis and dermal inflammation. […] Dermal fibrosis and inflammation were scored using the industry standard 5-point scoring system as follows: 0=no significant changes; 1=trace to minimal severity; 2=mild severity; 3=moderate severity; 4=marked severity. […]

A short description of series [2]: body weight in bleomycin-injected mice. The series is classed as in vivo, female C3H/HeJ inbred mice (Mus musculus). As to conditions: Group 4: bleomycin plus DEX 1 mg/kg IP BID; differences among groups at sacrifice not significant (P>0.05). The procedure: as §1, with “mg/kg. For animals of Groups 2-4, doses were administered at dose volumes of 10 mL/kg, and dose volumes for individual animals were recalculated once weekly based on the most recent body weights. Animals were administered bleomycin and test and control articles in two cohorts, with dosing staggered by one day. Cohort A was composed of the first five animals in each group [x01-x05, where x denoted the study group number (1, 2, 3, or 4)]. Cohort B was composed of the remaining animals (x06-x10).” for “mg/kg.”

Turning to `C[C@H]1[C@H]2N(C(=O)CN(C)N2C(=O)NCc2ccccc2)[C@@H](Cc2ccc(OP(=O)(O)O)cc2)C(=O)N1Cc1cccc2cccnc12` [Compound A, 4-(((6S,9S,9aS)-1-(benzylcarbamoyl)-2,9-dimethyl-4,7-dioxo-8-(quinolin-8-ylmethyl)octahydro-1H-pyrazino[2,1-c][1,2,4]triazin-6-yl)methyl)phenyl dihydrogen phosphate], the “dermal sclerosis scores vs vehicle-treated mice (FIG. 1)” value in series [1] (Compound A at either dose (0.5 and 5 mg/kg IP BID Days 14-41), Day 42, P<0.01) is given as “significant decrease”. In addition, the “dermal fibrosis (summary)” value in series [1] (bleomycin-injected mice, treatment IP BID Days 14-41) is listed as “ameliorated”. The dermal inflammation scores result in series [1] (bleomycin-injected mice, Compound A 0.5 and 5 mg/kg IP BID Days 14-41, Day 42 histopathology, 0-4 score) was “did not significantly affect”. Also, the “amount of dermal fibrosis (qualitative histopathology)” value in series [1] (both test article-treated groups (0.5 and 5 mg/kg IP BID), Day 42) is recorded as “mildly reduce”.

In the case of `C[C@@H]1C[C@H]2[C@@H]3CCC4=CC(=O)C=C[C@]4(C)[C@@]3(F)[C@@H](O)C[C@]2(C)[C@@]1(O)C(=O)CO` [DEX, dexamethasone], in series [2], the “decrease in mean body weight” value is “largest decrease”.
